{"source": "patent US20230094922A1", "about": "“METHODS OF THERAPEUTIC PROGNOSTICATION” (GENETIKAPLUS LTD., priority 2020, published 2023)", "tested_on": "iPSC-derived cortical neurons", "experiment": "Pre- and post-synaptic marker (Synapsin, PSD95) puncta and colocalization imaging analysis", "format": "cell-based, human", "conditions": "for intact synapses (colocalization of pre- and post-synaptic terminals), treated vs untreated: 7 days after treatment (Bupropion also 3 days)", "protocol": "iPSC differentiation into neurons-iPSCs were seeded at a density of 3×10^6 cells/well on a hESC-qualified Matrigel pre-coated 6-well plate and incubated at 37° C., 5% CO2 overnight. Differentiation was initiated the following day (day 0) after verifying that 100% confluency was reached. Differentiation media was added daily according to the following order: […]7 (day 15 onward) similar to a previously published protocol developed by for rapid differentiation to cortical neurons. The components of the described media, Q1-7, are provided in Appendix 1. Cells were assessed for differentiation efficiency and cell death on a daily basis. On day 9, differentiated neurons were re-plated on either 96-well plates (destined for staining) or 12-well plates (destined for RNA extraction) that were coated with 15 μg/mL Poly-ornithine diluted in PBS (overnight incubation at 37° C.), followed by 1 μg/mL Laminin and 2 μg/mL Fibronectin diluted in PBS (overnight incubation at 37° C.): Neurons were first rinsed with pre-warmed PBS and 1 ml/well of Accutase was added for 35 minutes at 37° C., 5% CO2. DNAse1 (0.5 mg/mL) was then added for 10 additional minutes. 3 ml of pre-warmed Neurobasal media was added to each well and neurons were gently collected using a 5 ml […]. Wells were then verified for the presence of any remaining neurons. Neurons were spun down and resuspended in Q6 media. Neurons were seeded at a density of 150,000 cells/cm^2 placed back at 37° C. Following four hours of incubation, media was changed to Q6 media (150 μl per 96-well and 1 ml per 12-well). […] For dendritic arborization analysis, pre/post-synaptic markers and colocalization analysis; α-Syn, PSD95 and MAP2 primary antibodies were used. Following washes, fluorophore-coupled secondary antibodies were incubated in the blocking solution for 1 hour at room temperature. The cells were counter-stained with 4',6-diamidino-2-phenylindole (DAPI) for nuclei detection for 15 minutes at room temperature followed by washes with PBS. Imaging was performed using Nikon Spinning Disk Confocal microscope. For imaging of pre- and post-synaptic markers, images were acquired with a 100× objective in z-stacks. For dendritic arborization analysis, images were acquired with a 20× objective in z-stacks. For imaging of dendritic spines, during culture treatment described in materials and methods, cells were infected at Day 20 with human syn-GFP or mKate virus and stained for GFP or mKate. Cells were fixed as described at day 35 and stained with antibodies against GFP or mKate respectively. Images were acquired using the Nikon Confocal Alit with a 60× objective and a 2× digital zoom in z-stacks and using the Nikon spinning disk Microscope with a 100× objective in z-stacks. Neuronal and synaptic morphology was assessed using the Neurolucida software, pre- and post-synaptic marker analysis was performed using CellProfiler and total dendritic length was measured using Fiji software. Immunohistochemical examination was carried out on the induced neuronal cells.", "data": [{"compound": "CC(NC(C)(C)C)C(=O)c1cccc(Cl)c1", "note": "(stereo not drawn) [Bupropion, 3-Chloro-N-tert-butyl-β-keto-α-methylphenethylamin]", "values": [{"measurement": "density of post-synaptic terminals (PSD95 puncta), responders vs non-responders", "setting": "after treatment", "value": "increase in density"}, {"measurement": "intact synapses, responders vs non-responders", "setting": "after treatment", "value": "increase"}, {"measurement": "size of PSD95 puncta (perimeter), responders vs non-responders", "setting": "at baseline and after treatment", "value": "reduced"}, {"measurement": "levels of pre-synaptic terminals (Synapsin puncta), responders vs non-responders", "setting": "both before and after treatment", "value": "significantly higher"}, {"measurement": "pre-synaptic terminals (Synapsin puncta density), following treatment", "setting": "both responders and non-responders", "value": "increase"}, {"measurement": "Synapsin puncta perimeter size, effect of treatment", "setting": "cells from non-responders", "value": "reduction in puncta perimeter size"}, {"measurement": "Synapsin puncta perimeter size, effect of treatment", "setting": "cells from responders", "value": "increase in puncta perimeter size"}, {"measurement": "intact synapses (colocalization of pre- and post-synaptic terminals), treated vs untreated", "setting": "neurons from non-responders", "value": "increased intact synapses"}, {"measurement": "density of post-synaptic terminals (distance between PSD95 puncta), after vs before treatment", "setting": "neurons from responders, 7 days after treatment", "value": "significantly increased"}, {"measurement": "intact synapses (colocalization of pre- and post-synaptic terminals), treated vs untreated", "setting": "neurons from responders", "value": "increased intact synapses"}, {"measurement": "size of PSD95 puncta (perimeter), effect of treatment", "setting": "responders and non-responders", "value": "no significant effect"}]}]}
